In patent US6858591B2, “Antibiotic AA 896 analogs” (Wyeth Holdings Corporation, priority 2001, dated 2005):
≈ marks a conversion by molar mass, not a printed value. Where two headings read alike, the source gives them in different places.

Columns and labels:
Experiment in all cases: In vitro MIC, broth dilution
Type in all cases: cell-based
E. coli GC 4559 = settings: Escherichia coli, GC4559
E. coli GC 4560 = settings: Escherichia coli, GC4560
E. coli GC 3226 = settings: Escherichia coli, GC3226
S. marcescens GC 4077 = settings: Serratia marcescens, GC4077
C. albicans GC 3066 = settings: Candida albicans, GC3066
M. morganii GC 4531 = settings: Morganella morganii, GC4531
K. pneumoniae GC 4534 = settings: Klebsiella pneumoniae, GC4534
E. cloacae GC 3783 = settings: Enterobacter cloacae, GC3783
P. aeruginosa GC 4532 = settings: Pseudomonas aeruginosa, GC4532
CNS GC 4537 = tested on: CNS GC 4537
Protocol: (§1) The minimum inhibitory concentration (MIC), the lowest concentration of the antibiotic which inhibits growth of the test organism, is determined by the broth dilution method using Muller-Hinton II […] (Baltimore Biological Laboratories) following the recommendations of National Committee for Clinical Laboratory Standards. [Reference for the Methods for dilution antimicrobial susceptibility tests for bacteria that grow aerobically: National Committee for Clinical Laboratory Standards, 1997. Approved standard M7-A National Committee for Clinical Laboratory Standards, Wayne, Pa.] An inoculum level of 5×10^5 CFU/ml, and a range of antibiotic concentrations (64-0.06 μg/ml) is used. The MIC is determined after the microtiter plates are incubated for 18 hours at 35° C. in an ambient air incubator. The test organisms comprise a spectrum of gram-positive bacteria including Staphylococcus sp., Streptococcus sp. and Enterococcus sp. These organisms include recent clinical isolates that are resistant to methicillin, penicillin and vancomycin.

CNS GC 4538 = tested on: CNS GC 4538
Protocol: as §1

CNS GC 4547 = tested on: CNS GC 4547
Protocol: as §1

E. faecalis GC 2242 = settings: Enterococcus faecalis, GC2242
Protocol: as §1

E. faecalis GC 4555 = settings: Enterococcus faecalis, GC4555
Protocol: as §1

E. faecalis GC 842 = settings: Enterococcus faecalis, GC842
Protocol: as §1

S. aureus GC 1131 = settings: Staphylococcus aureus, GC1131
Protocol: as §1

S. aureus GC 2216 = settings: Staphylococcus aureus, GC2216
Protocol: as §1

S. aureus GC 4536 = settings: Staphylococcus aureus, GC4536
Protocol: as §1

E. coli GC 2203 = settings: Escherichia coli, GC2203
P. aeruginosa GC 2214 = settings: Pseudomonas aeruginosa, GC2214
[1] = S. marcescens GC 4077, read-out: MIC
[2] = C. albicans GC 3066, read-out: MIC
[3] = M. morganii GC 4531, read-out: MIC
[4] = K. pneumoniae GC 4534, read-out: MIC
[5] = E. cloacae GC 3783, read-out: MIC
[6] = P. aeruginosa GC 4532, read-out: MIC
[7] = E. faecalis GC 2242, read-out: MIC
[8] = E. faecalis GC 4555, read-out: MIC
[9] = E. faecalis GC 842, read-out: MIC
[10] = S. aureus GC 1131, read-out: MIC
[11] = S. aureus GC 2216, read-out: MIC
[12] = S. aureus GC 4536, read-out: MIC
[13] = P. aeruginosa GC 2214, read-out: MIC

SMILES | MIC (E. coli GC 4559; E. coli GC 4559, read-out: MIC) [µg/mL] | MIC (E. coli GC 4560; E. coli GC 4560, read-out: MIC) [µg/mL] | MIC (E. coli GC 3226; E. coli GC 3226, read-out: MIC) [µg/mL] | MIC (S. marcescens GC 4077; [1]) [µg/mL] | MIC (C. albicans GC 3066; [2]) [µg/mL] | MIC (M. morganii GC 4531; [3]) [µg/mL] | MIC (K. pneumoniae GC 4534; [4]) [µg/mL] | MIC (E. cloacae GC 3783; [5]) [µg/mL] | MIC (P. aeruginosa GC 4532; [6]) [µg/mL] | MIC (CNS GC 4537; CNS GC 4537, read-out: MIC) [µg/mL] | MIC (CNS GC 4538; CNS GC 4538, read-out: MIC) [µg/mL] | MIC (CNS GC 4547; CNS GC 4547, read-out: MIC) [µg/mL] | MIC (E. faecalis GC 2242; [7]) [µg/mL] | MIC (E. faecalis GC 4555; [8]) [µg/mL] | MIC (E. faecalis GC 842; [9]) [µg/mL] | MIC (S. aureus GC 1131; [10]) [µg/mL] | MIC (S. aureus GC 2216; [11]) [µg/mL] | MIC (S. aureus GC 4536; [12]) [µg/mL] | MIC (E. coli GC 2203; E. coli GC 2203, read-out: MIC) [µg/mL] | MIC (P. aeruginosa GC 2214; [13]) [µg/mL] | further results
COc1ccc(Cn2c(=O)ccn([C@@H]3OC([C@H](O)[C@H](NC(=O)CCCCCCCCCCN)C(=O)OC(C)(C)C)[C@@H](O[Si](C)(C)C(C)(C)C)[C@H]3O[Si](C)(C)C(C)(C)C)c2=O)cc1 (stereo partly drawn) [Example 23, tert-Butyl (2S,3R)-2-[(11-aminoundecanoyl)amino]-3-[(3R,4R,5R)-3,4-bis{[tert-butyl(dimethyl)silyl]oxy}-5-(3-(4-methoxybenzyl)-2,4-dioxo-3,4-dihydro-1(2H)-pyrimidinyl)tetrahydro-2-furanyl]-3-hydroxypropanoate] | > 128 | 128 (≈ 141 µM) | > 128 | 128 (≈ 141 µM) | 128 (≈ 141 µM) | 128 (≈ 141 µM) | > 128 | > 128 | 128 (≈ 141 µM) | 128 (≈ 141 µM) | 128 (≈ 141 µM) | > 128 | 128 (≈ 141 µM) | 128 (≈ 141 µM) | 128 (≈ 141 µM) | > 128 | 128 (≈ 141 µM) | 128 (≈ 141 µM) | > 128 | 128 (≈ 141 µM) | –
CC(C)C[C@H](NC(=O)OCc1ccccc1)C(=O)NCCCN[C@H](C(=O)O)[C@@H](O)C1O[C@@H](n2ccc(=O)[nH]c2=O)[C@H](O)[C@@H]1O (stereo partly drawn) [Example 55, (5S,12S)-12-[(R)-[(3S,4R,5R)-5-(2,4-Dioxo-3,4-dihydro-1(2H)-pyrimidinyl)-3,4-dihydroxy-tetrahydro-2-furanyl](hydroxy)methyl]-5-isobutyl-3,6-dioxo-1-phenyl-2-oxa-4,7,11-triazatridecan-13-oic acid] | > 128 | 128 (≈ 206 µM) | 128 (≈ 206 µM) | 128 (≈ 206 µM) | 128 (≈ 206 µM) | 128 (≈ 206 µM) | 128 (≈ 206 µM) | 128 (≈ 206 µM) | 128 (≈ 206 µM) | > 128 | > 128 | > 128 | 128 (≈ 206 µM) | 128 (≈ 206 µM) | 128 (≈ 206 µM) | > 128 | > 128 | > 128 | 128 (≈ 206 µM) | 128 (≈ 206 µM) | –
COc1ccc(Cn2c(=O)ccn([C@@H]3OC([C@H](O)[C@H](NCCCNC(=O)[C@H](N)CC(C)C)C(=O)OC(C)(C)C)[C@@H](O[Si](C)(C)C(C)(C)C)[C@H]3O[Si](C)(C)C(C)(C)C)c2=O)cc1 (some centres unmarked) [Example 57] | > 128 | 128 (≈ 143 µM) | > 128 | 128 (≈ 143 µM) | 128 (≈ 143 µM) | 128 (≈ 143 µM) | > 128 | 128 (≈ 143 µM) | 128 (≈ 143 µM) | 4 (≈ 4.48 µM) | 4 (≈ 4.48 µM) | 64 (≈ 71.7 µM) | 4 (≈ 4.48 µM) | 4 (≈ 4.48 µM) | 8 (≈ 8.97 µM) | 64 (≈ 71.7 µM) | 32 (≈ 35.9 µM) | 8 (≈ 8.97 µM) | > 128 | 128 (≈ 143 µM) | –
CCOC(=O)C(NCCCNC(=O)[C@@H](N)[C@H](C)O)[C@@H](O)[C@H]1O[C@@H](n2ccc(=O)[nH]c2=O)[C@H](OC(C)=O)[C@@H]1OC(C)=O (stereo partly drawn) [Example 33, Ethyl (3R)-2-[(3-{[(2S,3S)-2-amino-3-hydroxybutanoyl]amino}propyl)amino]-3-[(2R,3R,4R,5R)-3,4-bis(acetyloxy)-5-(2,4-dioxo-3,4-dihydro-1(2H)-pyrimidinyl)tetrahydro-2-furanyl]-3-hydroxypropanoate] | > 128 | > 128 | > 128 | > 128 | > 128 | > 128 | > 128 | > 128 | > 128 | > 128 | > 128 | > 128 | > 128 | > 128 | > 128 | > 128 | > 128 | > 128 | > 128 | > 128 | –
COc1ccc(Cn2c(=O)ccn([C@@H]3OC([C@H](O)[C@H](NCCCNC(=O)[C@H](CC(=O)OCc4ccccc4)NC(=O)OCc4ccccc4)C(=O)OC(C)(C)C)[C@@H](O[Si](C)(C)C(C)(C)C)[C@H]3O[Si](C)(C)C(C)(C)C)c2=O)cc1 (stereo partly drawn) [Example 16, tert-Butyl (5S,12S)-5-[2-(benzyloxy)-2-oxoethyl]-12-[(R)-[(3R,4R,5R)-3,4-bis{[tert-butyl(dimethyl)silyl]oxy}-5-(3-(4-methoxybenzyl)-2,4-dioxo-3,4-dihydro-1(2H)-pyrimidinyl)tetrahydro-2-furanyl](hydroxy)methyl]-3,6-dioxo-1-phenyl-2-oxa-4,7,11-triazatridecan-13-oate] | – | – | – | – | – | – | – | – | – | – | – | – | – | – | – | – | – | – | – | – | MIC (E. coli GC 4559): > 128 µg/mL; MIC (E. coli GC 4560): > 128 µg/mL; MIC (E. coli GC 3226): > 128 µg/mL; MIC (S. marcescens GC 4077): > 128 µg/mL; MIC (C. albicans GC 3066): 128 µg/mL (≈ 114 µM); MIC (M. morganii GC 4531): > 128 µg/mL; MIC (K. pneumoniae GC 4534): > 128 µg/mL; MIC (E. cloacae GC 3783): > 128 µg/mL; MIC (P. aeruginosa GC 4532): > 128 µg/mL; MIC (CNS GC 4537): > 128 µg/mL; MIC (CNS GC 4538): > 128 µg/mL; MIC (CNS GC 4547): > 128 µg/mL; MIC (E. faecalis GC 2242): 128 µg/mL (≈ 114 µM); MIC (E. faecalis GC 4555): > 128 µg/mL; MIC (E. faecalis GC 842): > 128 µg/mL; MIC (S. aureus GC 1131): > 128 µg/mL; MIC (S. aureus GC 2216): > 128 µg/mL; MIC (S. aureus GC 4536): > 128 µg/mL; MIC (E. coli GC 2203): > 128 µg/mL; MIC (P. aeruginosa GC 2214): > 128 µg/mL
COc1ccc(Cn2c(=O)ccn([C@@H]3OC([C@H](O)[C@H](NCCCNC(=O)[C@H](C)N)C(=O)OC(C)(C)C)[C@@H](O[Si](C)(C)C(C)(C)C)[C@H]3O[Si](C)(C)C(C)(C)C)c2=O)cc1 (stereo partly drawn) [Example 15, tert-Butyl (2S,3R)-2-[(3-{[(2S)-2-aminopropanoyl]amino}propyl)amino]-3-[(3R,4R,5R)-3,4-bis{[tert-butyl(dimethyl)silyl]oxy}-5-(3-(4-methoxybenzyl)-2,4-dioxo-3,4-dihydro-1(2H)-pyrimidinyl)tetrahydro-2-furanyl]-3-hydroxypropanoate] | > 128 | 8 (≈ 9.41 µM) | > 128 | > 128 | 64 (≈ 75.3 µM) | 128 (≈ 151 µM) | > 128 | > 128 | > 128 | 4 (≈ 4.7 µM) | 4 (≈ 4.7 µM) | 8 (≈ 9.41 µM) | 4 (≈ 4.7 µM) | 4 (≈ 4.7 µM) | 4 (≈ 4.7 µM) | 4 (≈ 4.7 µM) | 4 (≈ 4.7 µM) | 4 (≈ 4.7 µM) | > 128 | 128 (≈ 151 µM) | –
COc1ccc(Cn2c(=O)ccn([C@@H]3OC([C@H](O)[C@H](NCCCNC(=O)[C@@H](N)CC(C)C)C(=O)OC(C)(C)C)[C@@H](O)[C@H]3O)c2=O)cc1 (stereo partly drawn) [Example 54, tert-Butyl (2S,3R)-2-[(3-{[(2S)-2-amino-4-methylpentanoyl]amino}propyl)amino]-3-[(3S,4R,5R)-3,4-dihydroxy-5-(3-(4-methoxybenzyl)-2,4-dioxo-3,4-dihydro-1(2H)-pyrimidinyl)tetrahydro-2-furanyl]-3-hydroxypropanoate] | > 128 | 128 (≈ 193 µM) | > 128 | > 128 | > 128 | 128 (≈ 193 µM) | > 128 | > 128 | > 128 | > 128 | > 128 | > 128 | 128 (≈ 193 µM) | > 128 | 128 (≈ 193 µM) | > 128 | > 128 | > 128 | > 128 | 128 (≈ 193 µM) | –
